# Patent publication US20250269072A1, “PROCESSES FOR PREPARING RADIOLABELLED CONJUGATES” (CENTENARY INSTITUTE OF CANCER MEDICINE AND CELL BIOLOGY, priority 2021, published 2025)
# “And” between values parts separate entries of the source, which are not always exact repeats. Equal values may be shown once.
# Columns and labels:
# [1] = In-human study of ^68Ga-CDI: radiation dosimetry (OLINDA/EXM 1.1); format: in vivo; settings: 5 participants
# Source text: Activity concentrations derived above were entered into OLINDA/EXM 1.1 and bi-exponential curves fitted using the curve fitting tools within OLINDA/EXM 1.1 (Stabin et al., J Nucl Med. 2005; 46:1023-1027).
# [2] = test system: squamous cell carcinoma lymph node metastases; assay: Histological correlation (TUNEL) with ^68Ga-CDI uptake; format: in vivo, human; settings: subject 3, right axillary and right cervical nodal metastases
# Source text: In one subject, who proceeded to surgical excision of the tumor deposits 1 day after the ^68Ga-CDI PET scan, histological correlation of the tumor deposits were undertaken using haematoxylin and eosin staining and TUNEL staining to specifically identify dead and dying cells. Representative samples of the formalin fixed surgical specimens (following completion of all clinical analysis and excess to that required for archival purposes) from the right axillary and right cervical nodal masses were selected and provided by the reporting clinical pathologist. The tissues were fixed, rehydrated with ethanol and xylene and embedded in paraffin. A series of 4 μm thick sections were cut and stained with Haematoxylin and Eosin. Apoptotic cells were stained using the TUNEL assay kit HRP-DAB (Abcam, Cat #206386, Cambridge, MA, USA) according to manufacturer's protocol. Briefly, 4 μm sections of paraffin embedded tumor were deparaffinized in xylene and rehydrated in decreasing concentrations of ethanol. Tumor sections were permeabilized with Proteinase K for 20 min at room temperature. The endogenous peroxidase activity was quenched with 3% H2O2 for 5 min. Apoptotic cells were labelled with biotinylated Terminal deoxynucleotidyl Transferase (TdT) at 37° C. in humidified chamber for 2 h followed by a 30 min incubation with streptavidin-HRP conjugate. […]
# [3] = Biodistribution in healthy male rats; format: in vivo, rats (Lewis); settings: rat
# Procedure: Biodistribution was studied in ten healthy male rats (Lewis, Liverpool Hospital Animal Facility) aged 6-8 weeks. Five rats were administered with ^68Ga-NODAGA-GSAO. The rats were housed singly in a cage with impervious absorbent matting and at 1 hour post administration 5 rats were sacrificed by lethal carbon dioxide overdose. Immediately post mortem, blood was sampled via cardiac puncture. Two of the 5 rats were then imaged by PET CT (GE Discovery 710). The PET CT scan comprised a CT scan (80 kVp, 20 mA, helical mode, reconstructed slice thickness of 0.625 mm) followed by a PET scan (2 bed positions, 7.5 min/bed position, 256×256 reconstruction matrix, slice thickness 3.27 mm).
# All of the rats were then dissected, organs sampled and weighed and counted in a gamma counter, and the cpm value converted to MBq using a known standard. The activity in the remaining carcass was measured in a dose calibrator.
# Biodistribution studies were performed in a further 5 rats at two hours following ^68Ga-NODAGA GSAO administration.
# Injected activity was corrected by measuring residual activity left in the syringe after injection in a dose calibrator. To correct for any dose extravasated at the injection site the tail was harvested and the activity in the tail was subtracted from the administered activity. All calculations were decayed corrected using the injection time as the reference.
# Biodistribution was expressed as % ID/g and % ID/organ. % retained activity was the sum total of all activity in all individually harvested organs as well as the activity in the remaining carcass as a percentage of the injected dose. % recovered activity was the sum total of all activity in all individually harvested organs as well as the activity in the remaining carcass and excreted activity in the impervious matting as a percentage of the injected dose.
compound,measurement,setting,value
O=C(O)CNC(=O)[C@H](CSCC(=O)Nc1ccc([As](O)O)cc1)NC(=O)CC[C@H](NC(=O)CCC1C(=O)[O][68Ga]2[O]C(=O)CN3CCN(CCN1CC3)CC(=O)[O]2)C(=O)O (stereo partly shown) [^68Ga-NODAGA-GSAO],"Estimated radiation dose, Average",[1]; Adrenals,1.28E−02 mSv/MBq
same,"Estimated radiation dose, Average",[1]; Brain,1.75E−03 mSv/MBq
same,"Estimated radiation dose, Average",[1]; Breasts,7.03E−03 mSv/MBq
same,"Estimated radiation dose, Average","[1]; Effective dose, listed as 68Ga-CDI",2.17E-02±4.61E-03 mSv/MBq and 2.17E−02 mSv/MBq
same,"Estimated radiation dose, Average",[1]; Gallbladder Wall,8.16E−03 mSv/MBq
same,"Estimated radiation dose, Average",[1]; Heart Wall,1.02E−02 mSv/MBq
same,"Estimated radiation dose, Average","[1]; Kidneys, listed as 68Ga-CDI",4.89E-02±3.55E-03 mSv/MBq and 4.89E−02 mSv/MBq
same,"Estimated radiation dose, Average",[1]; LLI Wall,1.91E−02 mSv/MBq
same,"Estimated radiation dose, Average",[1]; Liver,1.61E−02 mSv/MBq
same,"Estimated radiation dose, Average",[1]; Lungs,7.75E−03 mSv/MBq
same,"Estimated radiation dose, Average",[1]; Muscle,8.96E−03 mSv/MBq
same,"Estimated radiation dose, Average",[1]; Osteogenic Cells,1.13E−02 mSv/MBq
same,"Estimated radiation dose, Average",[1]; Ovaries,1.20E−02 mSv/MBq
same,"Estimated radiation dose, Average",[1]; Pancreas,1.52E−02 mSv/MBq
same,"Estimated radiation dose, Average",[1]; Red Marrow,8.89E−03 mSv/MBq
same,"Estimated radiation dose, Average",[1]; Skin,5.39E−03 mSv/MBq
same,"Estimated radiation dose, Average",[1]; Small Intestine,1.45E−02 mSv/MBq
same,"Estimated radiation dose, Average",[1]; Spleen,1.59E−02 mSv/MBq
same,"Estimated radiation dose, Average",[1]; Stomach Wall,1.00E−02 mSv/MBq
same,"Estimated radiation dose, Average",[1]; Testes,1.67E−02 mSv/MBq
same,"Estimated radiation dose, Average",[1]; Thymus,6.32E−03 mSv/MBq
same,"Estimated radiation dose, Average",[1]; Thyroid,1.26E−02 mSv/MBq
same,"Estimated radiation dose, Average",[1]; Total Body,9.66E−03 mSv/MBq
same,"Estimated radiation dose, Average",[1]; ULI Wall,1.23E−02 mSv/MBq
same,"Estimated radiation dose, Average","[1]; Urinary Bladder Wall, listed as 68Ga-CDI",2.79E-01±1.11E-01 mSv/MBq and 2.79E−01 mSv/MBq
same,"Estimated radiation dose, Average",[1]; Uterus,2.63E−02 mSv/MBq
same,TUNEL positive cells versus intensity of uptake,[2],correlated
same,injected activity retained within the animal,[3]; 1 hour,32.4%
same,mean total recovered activity,[3]; 1 hour,84.9 % of injected activity
same,injected activity retained within the animal,[3]; 2 hours,21.4%
same,total recovered activity,[3]; 2 hours,75.3 % of injected activity
